According to patent US20230414637A1 (priority 2020, published 2023):
Values after ≈ are worked out from the molar mass of the structure shown. Read-outs that look alike come from different tables or passages of the source.

Tests used:
[1] = same pH as Yomesan extraction (pH 9.3)
[2] = Equilibrium dissolution of AK Sci niclosamide versus pH (supernatant concentration by UV/Vis at 333 nm); details: for Average [Nic] (uM) UV/Vis, 333 nm), supernatant concentration: 20° C.
[3] = assay type: physicochemical
Excerpt: pH=pKa+Log10[Nic−ve]/[NicOH] Eqn 1
pHp=pKa+log(S−So)/So Eqn 4
So=the molar intrinsic solubility of the undissociated acid (NicOH), and S=the molar concentration of the salt form initially added.

[4] = for supernatant concentration reached at 3 hrs: more efficient stirring, pH 9.5, nominal 1 mM
[5] = Dissolution of niclosamide solvates (water precipitate, acetone and ethanol recrystallized) at pH 9.3; details: for solubility (equilibrium supernatant concentration several days after dissolution): pH 9.3; for initial dissolution rate, intrinsic parameter: pH 9.3 buffer, 3.5 mgs in 10 mls
Excerpt: To start to evaluate the various expected polymorphs and to try and obtain a morphology that was perhaps like the purchased materials (of unknown processing), three samples were made i.e., the “water-hydrate” precipitated from ethanol into excess water and two that were recrystallized from acetone and from ethanol.
It was filtered on a sintered glass filter, washed three times with deionized water, and dried. The material was ground by mortar and pestle ready for the dissolution test and viewed microscopically to evaluate its crystal morphology.
Each material was also viewed microscopically to evaluate their crystal morphologies.
Dissolution of the solvates. […] 2 uL aliquots were taken directly from the stirred solution in the 20 mL scintillation vial at appropriate time intervals and absorbance at 333 nm was measured by nanodrop spectrophotometer.

[6] = Literature aqueous solubility of niclosamide; details: van Tonder et al [17], converted
[7] = system: oxidative phosphorylation; details: cited from earlier work
[8] = system: SARS-CoV-2 in Calu-3 cells; details: Ko et al [34]; cited from earlier work
[9] = cited from earlier work
[10] = Dissolution and conversion of Sigma niclosamide (3 hrs and overnight stirring)
[11] = system: SARS-CoV-2 in Vero 6 cells; details: Vero 6 cells, Jeon et al [14]; read-out: IC50 for viral replication; cited from earlier work
GR = details: read-out: relative trans-activation potency (EC50); cited from earlier work
[12] = Supersaturated solution precipitation of niclosamide: amount in solution; details: pH 9.3, equilibrated
[13] = pH 7.09

O=C(Nc1ccc([N+](=O)[O-])cc1Cl)c1cc(Cl)ccc1O [AK Sci Niclosamide]
clear supernatant solution concentration [1]: 520 µM | Average [Nic] (uM) UV/Vis, 333 nm), supernatant concentration ([2]; measured pH 3.64, stirred to equilibrium (48 hrs)): 2.53 µM | Average [Nic] (uM) UV/Vis, 333 nm), supernatant concentration ([2]; measured pH 7.05, 48 hrs): 8.68 µM | Average [Nic] (uM) UV/Vis, 333 nm), supernatant concentration ([2]; measured pH 7.64, 48 hrs): 16.75 µM | Average [Nic] (uM) UV/Vis, 333 nm), supernatant concentration ([2]; measured pH 8.06, 48 hrs): 25.83 µM | Average [Nic] (uM) UV/Vis, 333 nm), supernatant concentration ([2]; measured pH 8.26, 48 hrs): 47.26 µM | Average [Nic] (uM) UV/Vis, 333 nm), supernatant concentration ([2]; measured pH 8.53, 48 hrs): 83.31 µM | Average [Nic] (uM) UV/Vis, 333 nm), supernatant concentration ([2]; measured pH 8.75, 48 hrs): 137.29 µM | Average [Nic] (uM) UV/Vis, 333 nm), supernatant concentration ([2]; measured pH 9.04, 48 hrs): 215.66 µM | Average [Nic] (uM) UV/Vis, 333 nm), supernatant concentration ([2]; measured pH 9.22, 48 hrs): 344.32 µM | Average [Nic] (uM) UV/Vis, 333 nm), supernatant concentration ([2]; measured pH 9.32, 48 hrs): 382.68 µM | Average [Nic] (uM) UV/Vis, 333 nm), supernatant concentration ([2]; measured pH 9.4, 48 hrs): 466.14 µM | Average [Nic] (uM) UV/Vis, 333 nm), supernatant concentration ([2]; measured pH 9.63, 48 hrs): 703.26 µM | limiting (intrinsic) solubility So of the protonated acid ([2]; pH 3.66): 2.53 µM | polymorph stability of excess powder in stirred buffer ([2]; stirred 24 hrs and longer, days, in presence of original powder): did not readily convert to the less soluble hydrates | pKa fitted from pHp curve to supernatant concentration data ([3]; So 2.53 uM): 7.12 | supernatant concentration reached at 3 hrs ([4]; listed as AK Sci niclosamide): 564 µM | fitted logarithmic dissolution rate, pre-ln factor ([4]; pH 8.62, nominal 1 mM, first hour): 22 | fitted logarithmic dissolution rate, pre-ln factor ([4]; pH 8.72, nominal 1 mM): 24 | fitted logarithmic dissolution rate, pre-ln factor ([4]; pH 9.06, nominal 1 mM): 38 | initial rate of dissolution / extraction over first three minutes ([4]; pH 9.3 buffer): 51.7 µM/min | intrinsic dissolution rate ([4]; pH 9.3 buffer, converted from uM/min): 0.28 µg/s | fitted logarithmic dissolution rate, pre-ln factor ([4]; pH 9.36, nominal 1 mM): 71 | solubility (equilibrium supernatant concentration several days after dissolution) [5]: ~383 µM (≈ 125 µg/mL)

O=C(Nc1ccc([N+](=O)[O-])cc1Cl)c1cc(Cl)ccc1O [Anhydrate]
solubility of crystal forms in distilled water [6]: 40.4 µM

N#CC(C#N)=NNc1ccc(OC(F)(F)F)cc1 [FCCP]
concentration of uncoupling activity [7]: 100 nM

O.O=C(Nc1ccc([N+](=O)[O-])cc1Cl)c1cc(Cl)ccc1O [Monohydrates HA]
solubility of crystal forms in distilled water [6]: 2.9 µM

O.O=C(Nc1ccc([N+](=O)[O-])cc1Cl)c1cc(Cl)ccc1O [Monohydrates HB]
solubility of crystal forms in distilled water [6]: 1.87 µM

N=C(N)c1ccc2cc(OC(=O)c3ccc(N=C(N)N)cc3)ccc2c1 [Nafamostat]
antiviral activity [8]: few nanomolar

O=C(Nc1ccc([N+](=O)[O-])cc1Cl)c1cc(Cl)ccc1O [NicAcetone-recrys]
solubility (equilibrium supernatant concentration several days after dissolution) ([5]; listed as acetone recrystallized material): 79.4 µM (≈ 26 µg/mL) | initial dissolution rate, intrinsic parameter [5]: 0.0369 µM/mg

O=C(Nc1ccc([N+](=O)[O-])cc1Cl)c1cc(Cl)ccc1O [NicEtOH-recrys]
initial dissolution rate, intrinsic parameter [5]: 0.0439 µM/mg

O=C(Nc1ccc([N+](=O)[O-])cc1Cl)c1cc(Cl)ccc1O [NicH20ppt]
solubility (equilibrium supernatant concentration several days after dissolution) ([5]; listed as water solvate): 132.6 µM (≈ 43.4 µg/mL) | initial dissolution rate, intrinsic parameter [5]: 0.104 µM/mg

O=C(Nc1ccc([N+](=O)[O-])cc1Cl)c1cc(Cl)ccc1O [Nic−ve]
solubility limit of the negatively charged salt ([2]; pH 9.5): ~640 µM | solubility limit of the deprotonated salt ([2]; pH 9.63): at least 703.6 uM | solubility limit of the negatively charged salt ([2]; pH not stated at the place): ≥ 670 µM

Oc1c(Cl)c(Cl)c(Cl)c(Cl)c1Cl [PCP]
concentration of uncoupling activity ([7]; Terada [39]): 1000 nM | pKa ([9]; Terada [39]): 4.80

CC(C)(C)c1cc(Cl)cc(C(=O)Nc2ccc([N+](=O)[O-])cc2Cl)c1O [S-13]
concentration of uncoupling activity ([7]; Terada [39]): 30 nM | pKa ([9]; Terada [39]): 6.57

CC(C)(C)c1cc(C=C(C#N)C#N)cc(C(C)(C)C)c1O [SF 6847, 3,5-Di-tert-butyl-4-hydroxy-benzylidene-Malononitrile]
concentration of uncoupling activity ([7]; Terada [39]): 10 nM | pKa ([9]; Terada [39]): 6.83

O=C(Nc1ccc([N+](=O)[O-])cc1Cl)c1cc(Cl)ccc1O [Sigma niclosamide]
supernatant concentration reached at 3 hrs [4]: 680 µM | fitted logarithmic dissolution rate, factor of ln(x) ([4]; pH 9.44 buffer, more optimized (standardized) stirring): 116 | reduction of amount of niclosamide in supernatant solution after overnight equilibration ([10]; over the whole pH range): ~3.5 × | solubility after overnight equilibration ([10]; pH 9.3): 103 µM (≈ 33.7 µg/mL) | polymorph stability of excess powder in stirred buffer ([10]; several hours after the first 3 hrs): converted to a much lower solubility polymorph | loss of material concentration from 3 hrs to 24 hrs ([10]; ~pH 9.5): 434 µM | supernatant niclosamide concentration at 3 hrs ([10]; ~pH 9.5): 681 µM | supernatant niclosamide concentration after 24 hrs (overnight stirring) ([10]; ~pH 9.5, filtered 0.22 um): 247 µM

FC(F)(F)c1nc2c(Cl)c(Cl)c(Cl)c(Cl)c2[nH]1 [TTFB]
concentration of uncoupling activity ([7]; Terada [39]): 100 nM | pKa ([9]; in 50% ethanol): 5.5

CCN(CC)CCCC(C)Nc1ccnc2cc(Cl)ccc12 (centres unmarked) [chloroquine]
IC50 [11]: 9.12 µM

O=C(O)c1ccccc1Nc1cccc(C(F)(F)F)c1 [flufenamic acid]
concentration of uncoupling activity ([7]; Terada [39]): 50000 nM | pKa ([9]; Terada [39]): 3.85

CCC(=O)O[C@]1(C(=O)SCF)[C@H](C)C[C@H]2[C@@H]3C[C@H](F)C4=CC(=O)C=C[C@]4(C)[C@@]3(F)[C@@H](O)C[C@@]21C [fluticasone propionate]
EC50 (GR): 0.32 ± 0.04 nM

Cc1cccc(C)c1OCC(=O)N[C@@H](Cc1ccccc1)[C@@H](O)C[C@H](Cc1ccccc1)NC(=O)[C@H](C(C)C)N1CCCNC1=O [lopinavir]
IC50 [11]: 7.28 µM

O=C(Nc1ccc([N+](=O)[O-])cc1Cl)c1cc(Cl)ccc1O [precipitated material]
solubility of material precipitated in situ from supersaturated solution [12]: 180.9 µM

O.O=C(Nc1ccc([N+](=O)[O-])cc1Cl)c1cc(Cl)ccc1O [presumed monohydrate]
expected concentration in solution from pHp model ([3]; pH 6): 1 uM | solubility [13]: 1.24 µM
